Source: PMC8398766, “Do Small Molecules Activate the TrkB Receptor in the Same Manner as BDNF? Limitations of Published TrkB Low Molecular Agonists and Screening for Novel TrkB Orthosteric Agonists” (Pharmaceuticals, 2021)

What was measured:
Test in all cases: BioPrint Profile Panel
Assay type in all cases: binding
UT = target: T1, UT (Homo sapiens, UniProt Q9UKP6); details: Agonist, Receptor, read-out: % of specific inhibition
T1 construct: purchased Eurofins Discovery (Cerep) BioPrint Profile Panel
Description: (§1) The BioPrint® Profile Panel service offered by Eurofins Discovery (Poitiers, France) was chosen to perform selectivity analysis.

APJ (apelin) = target: T2, APJ (apelin) (Homo sapiens, UniProt P35414); details: Agonist, Receptor, read-out: % of specific inhibition
T2 construct: purchased Eurofins Discovery (Cerep) BioPrint Profile Panel
Description: as §1

choline transporter = target: T3, choline transporter (Homo sapiens, UniProt Q9GZV3); details: Antagonist, read-out: % of specific inhibition
T3 construct: purchased Eurofins Discovery (Cerep) BioPrint Profile Panel
Description: as §1

B2 = target: T4, B2 (Homo sapiens, UniProt P30411); details: Agonist, Receptor, read-out: % of specific inhibition
T4 construct: purchased Eurofins Discovery (Cerep) BioPrint Profile Panel
Description: as §1

α1B = target: T5, α1B (Homo sapiens, UniProt P35368); details: Antagonist, Receptor, read-out: % of specific inhibition
T5 construct: purchased Eurofins Discovery (Cerep) BioPrint Profile Panel
Description: as §1

NOP (ORL1) = target: T6, NOP (ORL1) (Homo sapiens, UniProt P41146); details: Agonist, Receptor, read-out: % of specific inhibition
T6 construct: purchased Eurofins Discovery (Cerep) BioPrint Profile Panel
Description: as §1

CCR2 = target: T7, CCR2 (Homo sapiens, UniProt P41597); details: Agonist, Receptor, read-out: % of specific inhibition
T7 construct: purchased Eurofins Discovery (Cerep) BioPrint Profile Panel
Description: as §1

sst4 = target: T8, sst4 (Homo sapiens, UniProt P31391); details: Agonist, Receptor, read-out: % of specific inhibition
T8 construct: purchased Eurofins Discovery (Cerep) BioPrint Profile Panel
Description: as §1

AR = target: T9, AR (Homo sapiens, UniProt P10275, T878A); details: Agonist, Receptor, read-out: % of specific inhibition
T9 construct: purchased Eurofins Discovery (Cerep) BioPrint Profile Panel
Description: as §1

CCK1 = target: T10, CCK1 (Homo sapiens, UniProt P32238); details: Agonist, Receptor, read-out: % of specific inhibition
T10 construct: purchased Eurofins Discovery (Cerep) BioPrint Profile Panel
Description: as §1

β3 = target: T11, β3 (Homo sapiens, UniProt P13945); details: Antagonist, Receptor, read-out: % of specific inhibition
T11 construct: purchased Eurofins Discovery (Cerep) BioPrint Profile Panel
Description: as §1

5-HT1A = target: T12, 5-HT1A (Homo sapiens, UniProt P08908); details: Agonist, Receptor, read-out: % of specific inhibition
T12 construct: purchased Eurofins Discovery (Cerep) BioPrint Profile Panel
Description: as §1

RARα = target: T13, RARα (Homo sapiens, UniProt P10276); details: Agonist, Receptor, read-out: % of specific inhibition
T13 construct: purchased Eurofins Discovery (Cerep) BioPrint Profile Panel
Description: as §1

5-HT2B = target: T14, 5-HT2B (Homo sapiens, UniProt P41595); details: Agonist, Receptor
T14 construct: purchased Eurofins Discovery (Cerep) BioPrint Profile Panel
Description: as §1

kappa = details: 10 μM; Agonist; Receptor
Description: as §1

ETA = target: T15, ETA (Homo sapiens, UniProt P25101); details: Agonist, Receptor, read-out: % of specific inhibition
T15 construct: purchased Eurofins Discovery (Cerep) BioPrint Profile Panel
Description: as §1

H2 = target: T16, H2 (Homo sapiens, UniProt P25021); details: Antagonist, Receptor, read-out: % of specific inhibition
T16 construct: purchased Eurofins Discovery (Cerep) BioPrint Profile Panel
Description: as §1

kainate = details: 10 μM; Agonist; Ion Channel
Description: as §1

CysLT1 (LTD4) = target: T17, CysLT1 (LTD4) (Homo sapiens, UniProt Q9Y271); details: Agonist, Receptor, read-out: % of specific inhibition
T17 construct: purchased Eurofins Discovery (Cerep) BioPrint Profile Panel
Description: as §1

M2 = target: T18, M2 (Homo sapiens, UniProt P08172); details: Antagonist, Receptor, read-out: % of specific inhibition
T18 construct: purchased Eurofins Discovery (Cerep) BioPrint Profile Panel
Description: as §1

sst1 = target: T19, sst1 (Homo sapiens, UniProt P30872); details: Agonist, Receptor, read-out: % of specific inhibition
T19 construct: purchased Eurofins Discovery (Cerep) BioPrint Profile Panel
Description: as §1

GABAA1 (h) (α1, β2, γ2) = target: T20, GABAA1 (h) (α1, β2, γ2) (Homo sapiens, UniProt P14867+P47870); details: Agonist, Receptor, read-out: % of specific inhibition
T20 construct: purchased Eurofins Discovery (Cerep) BioPrint Profile Panel
Description: as §1

D3 = target: T21, D3 (Homo sapiens, UniProt P35462); details: Antagonist, Receptor, read-out: % of specific inhibition
T21 construct: purchased Eurofins Discovery (Cerep) BioPrint Profile Panel
Description: as §1

5-HT2C = target: T22, 5-HT2C (Homo sapiens, UniProt P28335); details: Agonist, Receptor, read-out: % of specific inhibition
T22 construct: purchased Eurofins Discovery (Cerep) BioPrint Profile Panel
Description: as §1

AT1 = target: T23, AT1 (Homo sapiens, UniProt P30556); details: Antagonist, Receptor, read-out: % of specific inhibition
T23 construct: purchased Eurofins Discovery (Cerep) BioPrint Profile Panel
Description: as §1

NK1 = target: T24, NK1 (Homo sapiens, UniProt P25103); details: Agonist, Receptor, read-out: % of specific inhibition
T24 construct: purchased Eurofins Discovery (Cerep) BioPrint Profile Panel
Description: as §1

A2A = target: T25, A2A (Homo sapiens, UniProt P29274); details: Agonist, Receptor
T25 construct: purchased Eurofins Discovery (Cerep) BioPrint Profile Panel
Description: as §1

sigma = details: 10 μM; Agonist; Receptor
Description: as §1

AMPA = details: 10 μM; Agonist; Ion Channel
Description: as §1

CCK2 (CCKB) = target: T26, CCK2 (CCKB) (Homo sapiens, UniProt P32239); details: Agonist, Receptor, read-out: % of specific inhibition
T26 construct: purchased Eurofins Discovery (Cerep) BioPrint Profile Panel
Description: as §1

[1] = read-out: % Inhibition of Control Specific Binding

T14 sequence (P41595 whole entry): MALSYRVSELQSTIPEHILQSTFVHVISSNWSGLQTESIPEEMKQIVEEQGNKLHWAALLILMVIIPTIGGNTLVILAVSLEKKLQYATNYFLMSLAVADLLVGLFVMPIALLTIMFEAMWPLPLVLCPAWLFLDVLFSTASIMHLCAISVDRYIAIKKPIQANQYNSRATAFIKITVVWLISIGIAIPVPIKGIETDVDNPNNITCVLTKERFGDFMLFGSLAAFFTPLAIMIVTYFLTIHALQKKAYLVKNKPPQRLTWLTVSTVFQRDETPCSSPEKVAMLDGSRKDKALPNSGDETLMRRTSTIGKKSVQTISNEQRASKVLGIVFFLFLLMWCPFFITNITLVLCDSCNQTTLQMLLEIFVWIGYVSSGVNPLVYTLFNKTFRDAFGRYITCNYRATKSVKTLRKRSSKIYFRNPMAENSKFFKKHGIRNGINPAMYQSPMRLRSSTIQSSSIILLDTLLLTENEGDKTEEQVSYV
T25 sequence (P29274 whole entry): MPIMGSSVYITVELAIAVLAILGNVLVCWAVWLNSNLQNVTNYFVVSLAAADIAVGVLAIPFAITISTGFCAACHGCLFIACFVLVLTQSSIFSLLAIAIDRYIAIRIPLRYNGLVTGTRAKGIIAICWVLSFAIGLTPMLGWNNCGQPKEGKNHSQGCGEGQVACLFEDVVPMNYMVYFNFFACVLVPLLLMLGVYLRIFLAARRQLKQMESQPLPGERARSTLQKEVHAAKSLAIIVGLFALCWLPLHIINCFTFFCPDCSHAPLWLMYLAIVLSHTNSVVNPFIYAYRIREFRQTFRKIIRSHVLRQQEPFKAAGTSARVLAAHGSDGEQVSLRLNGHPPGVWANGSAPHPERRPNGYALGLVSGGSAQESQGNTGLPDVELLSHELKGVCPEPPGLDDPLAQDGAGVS
T13 sequence (P10276 whole entry): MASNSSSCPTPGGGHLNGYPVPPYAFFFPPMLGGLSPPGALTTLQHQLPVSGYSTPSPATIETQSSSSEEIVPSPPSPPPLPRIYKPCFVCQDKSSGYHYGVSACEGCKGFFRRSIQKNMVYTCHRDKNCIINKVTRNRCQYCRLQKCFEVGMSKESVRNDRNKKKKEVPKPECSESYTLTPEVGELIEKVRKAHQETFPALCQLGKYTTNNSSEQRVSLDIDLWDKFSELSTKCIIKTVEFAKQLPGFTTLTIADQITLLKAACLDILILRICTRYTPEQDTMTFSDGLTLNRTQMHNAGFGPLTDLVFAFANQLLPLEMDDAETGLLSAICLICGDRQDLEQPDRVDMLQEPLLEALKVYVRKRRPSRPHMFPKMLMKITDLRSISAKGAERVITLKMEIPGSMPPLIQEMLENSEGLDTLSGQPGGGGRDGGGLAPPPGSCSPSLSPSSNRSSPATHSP
T2 sequence (P35414 whole entry): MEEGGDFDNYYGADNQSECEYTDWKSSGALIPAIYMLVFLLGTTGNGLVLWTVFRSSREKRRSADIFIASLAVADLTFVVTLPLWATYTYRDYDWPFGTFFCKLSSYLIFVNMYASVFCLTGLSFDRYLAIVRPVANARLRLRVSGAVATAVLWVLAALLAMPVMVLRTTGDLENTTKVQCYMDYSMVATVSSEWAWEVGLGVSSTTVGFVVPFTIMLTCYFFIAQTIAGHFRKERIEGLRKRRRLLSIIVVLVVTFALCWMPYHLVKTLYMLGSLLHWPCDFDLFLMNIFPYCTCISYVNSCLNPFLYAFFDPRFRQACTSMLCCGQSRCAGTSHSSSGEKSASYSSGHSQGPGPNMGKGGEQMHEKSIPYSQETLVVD
T8 sequence (P31391 whole entry): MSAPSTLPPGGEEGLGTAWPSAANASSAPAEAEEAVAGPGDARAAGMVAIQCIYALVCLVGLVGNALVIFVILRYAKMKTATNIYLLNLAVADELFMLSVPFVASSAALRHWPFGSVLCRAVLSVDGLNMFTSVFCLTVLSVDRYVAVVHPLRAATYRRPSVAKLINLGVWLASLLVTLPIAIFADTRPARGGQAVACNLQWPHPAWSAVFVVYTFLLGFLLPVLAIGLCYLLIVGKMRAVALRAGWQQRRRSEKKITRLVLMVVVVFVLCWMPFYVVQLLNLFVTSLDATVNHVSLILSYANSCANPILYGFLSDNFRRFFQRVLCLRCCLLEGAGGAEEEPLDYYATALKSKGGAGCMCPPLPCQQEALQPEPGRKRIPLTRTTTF
T7 sequence (P41597 whole entry): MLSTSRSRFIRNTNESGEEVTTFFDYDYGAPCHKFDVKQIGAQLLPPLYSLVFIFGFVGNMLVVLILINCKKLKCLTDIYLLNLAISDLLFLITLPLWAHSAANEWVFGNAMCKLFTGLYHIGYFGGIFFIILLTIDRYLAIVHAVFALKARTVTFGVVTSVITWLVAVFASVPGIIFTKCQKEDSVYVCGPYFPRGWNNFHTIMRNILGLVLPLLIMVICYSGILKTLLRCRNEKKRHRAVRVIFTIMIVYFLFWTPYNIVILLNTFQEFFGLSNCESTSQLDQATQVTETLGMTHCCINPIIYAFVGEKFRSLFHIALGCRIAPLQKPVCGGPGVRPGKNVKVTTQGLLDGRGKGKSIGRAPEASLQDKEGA
T18 sequence (P08172 whole entry): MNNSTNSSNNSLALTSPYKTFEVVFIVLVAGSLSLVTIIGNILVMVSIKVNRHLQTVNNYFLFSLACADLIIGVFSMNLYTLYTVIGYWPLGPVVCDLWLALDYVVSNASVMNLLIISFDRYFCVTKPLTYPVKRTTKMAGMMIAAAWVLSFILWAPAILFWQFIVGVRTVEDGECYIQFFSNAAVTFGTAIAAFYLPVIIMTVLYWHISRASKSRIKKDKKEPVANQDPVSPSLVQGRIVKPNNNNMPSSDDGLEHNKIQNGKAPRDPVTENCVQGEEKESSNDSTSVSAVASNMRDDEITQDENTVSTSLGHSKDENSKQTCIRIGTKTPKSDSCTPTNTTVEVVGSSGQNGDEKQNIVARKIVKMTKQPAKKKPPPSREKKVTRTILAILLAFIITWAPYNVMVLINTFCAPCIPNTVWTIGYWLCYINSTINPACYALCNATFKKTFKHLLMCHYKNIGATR
T16 sequence (P25021 whole entry): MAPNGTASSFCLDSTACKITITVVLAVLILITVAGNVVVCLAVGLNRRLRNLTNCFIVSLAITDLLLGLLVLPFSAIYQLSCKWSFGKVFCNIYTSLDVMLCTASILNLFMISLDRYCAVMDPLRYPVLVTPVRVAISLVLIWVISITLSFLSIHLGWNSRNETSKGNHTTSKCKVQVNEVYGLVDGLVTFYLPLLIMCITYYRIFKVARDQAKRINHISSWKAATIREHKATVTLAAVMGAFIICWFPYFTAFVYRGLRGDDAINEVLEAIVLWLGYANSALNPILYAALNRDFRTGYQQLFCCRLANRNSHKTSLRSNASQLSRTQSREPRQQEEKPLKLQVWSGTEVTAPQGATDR
T5 sequence (P35368 whole entry): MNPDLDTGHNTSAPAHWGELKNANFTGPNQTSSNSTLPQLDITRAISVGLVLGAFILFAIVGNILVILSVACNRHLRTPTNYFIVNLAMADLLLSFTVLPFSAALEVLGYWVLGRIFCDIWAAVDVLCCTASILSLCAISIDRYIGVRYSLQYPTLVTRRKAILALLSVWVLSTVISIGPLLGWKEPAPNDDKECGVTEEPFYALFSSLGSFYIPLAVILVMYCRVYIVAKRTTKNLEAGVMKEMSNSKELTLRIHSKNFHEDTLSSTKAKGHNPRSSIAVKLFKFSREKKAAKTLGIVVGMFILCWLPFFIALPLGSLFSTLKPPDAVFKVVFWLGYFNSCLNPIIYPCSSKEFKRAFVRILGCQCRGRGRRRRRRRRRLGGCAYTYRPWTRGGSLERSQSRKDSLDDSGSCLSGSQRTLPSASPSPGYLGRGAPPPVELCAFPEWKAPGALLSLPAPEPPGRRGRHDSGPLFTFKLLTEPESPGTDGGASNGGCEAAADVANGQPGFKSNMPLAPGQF
T6 sequence (P41146 whole entry): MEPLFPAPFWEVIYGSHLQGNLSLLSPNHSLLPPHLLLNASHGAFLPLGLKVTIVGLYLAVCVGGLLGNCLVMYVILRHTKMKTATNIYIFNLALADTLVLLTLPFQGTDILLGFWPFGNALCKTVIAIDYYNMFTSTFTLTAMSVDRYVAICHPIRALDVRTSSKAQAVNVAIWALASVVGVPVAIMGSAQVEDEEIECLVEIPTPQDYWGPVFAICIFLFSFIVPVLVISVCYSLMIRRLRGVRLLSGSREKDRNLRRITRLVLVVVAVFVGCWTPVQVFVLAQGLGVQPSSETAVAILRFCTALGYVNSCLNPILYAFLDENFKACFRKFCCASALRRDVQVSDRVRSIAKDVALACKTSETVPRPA
T26 sequence (P32239 whole entry): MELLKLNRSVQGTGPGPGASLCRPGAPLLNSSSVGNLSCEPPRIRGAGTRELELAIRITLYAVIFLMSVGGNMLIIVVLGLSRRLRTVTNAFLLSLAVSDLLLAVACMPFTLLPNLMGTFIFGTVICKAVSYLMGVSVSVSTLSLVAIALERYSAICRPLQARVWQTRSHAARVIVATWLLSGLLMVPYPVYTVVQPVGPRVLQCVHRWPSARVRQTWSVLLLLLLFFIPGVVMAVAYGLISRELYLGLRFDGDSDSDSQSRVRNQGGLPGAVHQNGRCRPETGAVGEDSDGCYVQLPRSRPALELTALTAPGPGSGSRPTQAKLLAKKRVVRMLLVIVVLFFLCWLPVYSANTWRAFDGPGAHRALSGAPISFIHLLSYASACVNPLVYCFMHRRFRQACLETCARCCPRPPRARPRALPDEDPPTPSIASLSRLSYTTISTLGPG

`O=c1cc(-c2ccccc2)oc2c(O)c(O)ccc12` [7,8-DHF, 7,8-dihydroxyflavone] gave an inhibition at 10 µM (UT) of -9%, an inhibition at 10 µM (APJ (apelin)) of 4% and an inhibition at 10 µM (choline transporter) of 5%. The inhibition at 10 µM (B2) was -6%, the inhibition at 10 µM (α1B) was -3% and the inhibition at 10 µM (NOP (ORL1)) was 11%. It also gave an inhibition at 10 µM (CCR2) of 4%, an inhibition at 10 µM (sst4) of -23% and an inhibition at 10 µM (AR) of 0%. It also gave an inhibition at 10 µM (CCK1) of 21%, an inhibition at 10 µM (β3) of -25% and an inhibition at 10 µM (5-HT1A) of -26%. For the same compound, the inhibition at 10 µM (RARα) was -16%, the “% Inhibition of Control Specific Binding” value (5-HT2B; 10 μM) was 50.2% and the inhibition at 10 µM (5-HT2B; [1]) was 50%. The “% of specific inhibition” value (kappa) was 3%, the inhibition at 10 µM (ETA) was -10% and the inhibition at 10 µM (H2) was -37%. For the same compound, the “% of specific inhibition” value (kainate) was 26%, the inhibition at 10 µM (CysLT1 (LTD4)) was -10% and the inhibition at 10 µM (M2) was -2%. The inhibition at 10 µM (sst1) was 2%, the inhibition at 10 µM (GABAA1 (h) (α1, β2, γ2)) was 12% and the inhibition at 10 µM (D3) was 2%. For the same compound, the inhibition at 10 µM (5-HT2C) was -4%, the inhibition at 10 µM (AT1) was 24% and the inhibition at 10 µM (NK1) was 11%. For the same compound, the “% Inhibition of Control Specific Binding” value (A2A; 10 μM) was 74.9%, the inhibition at 10 µM (A2A; [1]) was 75% and the “% of specific inhibition” value (sigma) was 3%. The “% of specific inhibition” value (AMPA) was 7% and the inhibition at 10 µM (CCK2 (CCKB)) was 15%.
